Measurements published in patent US4319028A, “7-(2-(Substituted benzoyl)amino)acetamido)cephalosporins” (Eli Lilly and Company, priority 1976, dated 1982).
≈ marks a conversion by molar mass, not a printed value. Where two headings read alike, the source gives them in different places.

Tests used:
Shigella sp. = test: Antibiotic activity (MIC), Gradient Plate in vitro method, Shigella sp.; type: cell-based; details: read-out: Minimum Inhibitory Concentration
Excerpt: (§1) The antibiotic activity of the cephalosporin compounds of the present invention is illustrated by the data presented in Table I for representative compounds. The values in the table are the minimum inhibitory concentrations (MIC) for the test compounds against the indicated microorganisms. The MIC values were obtained in the Gradient Plate in vitro method for determining antibiotic activity.

Escherichia coli = test: Antibiotic activity (MIC), Gradient Plate in vitro method, Escherichia coli; type: cell-based; details: read-out: Minimum Inhibitory Concentration
Excerpt: (§2) The values in the table are the minimum inhibitory concentrations (MIC) for the test compounds against the indicated microorganisms. The MIC values were obtained in the Gradient Plate in vitro method for determining antibiotic activity.

Klebsiella pneumoniae = test: Antibiotic activity (MIC), Gradient Plate in vitro method, Klebsiella pneumoniae; type: cell-based; details: read-out: Minimum Inhibitory Concentration
Excerpt: as §2

Aerobacter Aerogenes = test: Antibiotic activity (MIC), Gradient Plate in vitro method, Aerobacter Aerogenes; type: cell-based; details: Klebsiella aerogenes, read-out: Minimum Inhibitory Concentration
Excerpt: as §2

Salmonella heidelberg = test: Antibiotic activity (MIC), Gradient Plate in vitro method, Salmonella heidelberg; type: cell-based; details: Salmonella enterica, read-out: Minimum Inhibitory Concentration
Excerpt: as §2

Pseudomonas Aeruginosa = test: Antibiotic activity (MIC), Gradient Plate in vitro method, Pseudomonas Aeruginosa; type: cell-based; details: read-out: Minimum Inhibitory Concentration
Excerpt: as §2

Serratia marcescens = test: Antibiotic activity (MIC), Gradient Plate in vitro method, Serratia marcescens; type: cell-based; details: read-out: Minimum Inhibitory Concentration
Excerpt: as §1

[1] = system: V41 (penicillin resistant Staphylococcus); test: Antibiotic activity (MIC), Gradient Plate in vitro method, V41; type: cell-based; details: Gradient Plate in vitro; V41, penicillin resistant Staphylococcus; read-out: Minimum Inhibitory Concentration
Excerpt: as §1
(§3) ^1 Test organisms V41, V32, and V84 are penicillin resistant

[2] = system: V32 (penicillin resistant Staphylococcus); test: Antibiotic activity (MIC), Gradient Plate in vitro method, V32; type: cell-based; details: read-out: Minimum Inhibitory Concentration
Excerpt: as §1, §3

[3] = system: X466 (methicillin resistant Staphylococcus); test: Antibiotic activity (MIC), Gradient Plate in vitro method, X466; type: cell-based; details: read-out: Minimum Inhibitory Concentration
Excerpt: as §1, with “activity. […]” for “activity.”

[4] = system: V84 (penicillin resistant Staphylococcus); test: Antibiotic activity (MIC), Gradient Plate in vitro method, V84; type: cell-based; details: read-out: Minimum Inhibitory Concentration
Excerpt: as §1, §3

Titration (pKa) = type: physicochemical; details: 66% dmf-34% h2o, titration (66% DMF-34% H2O)
[5] = Gradient Plate in vitro, V32, penicillin resistant Staphylococcus
[6] = Gradient Plate in vitro, V84, penicillin resistant Staphylococcus
[7] = first pKa, read-out: pKa (first value)
[8] = second pKa, read-out: pKa (second value)

Q: Which results are given for `Cn1nnnc1SCC1=C(C(=O)O)N2C(=O)C(NC(=O)[C@H](NC(=O)c3cccc(O)c3O)c3ccccc3)C2SC1` (stereo partly drawn) [Example 1, 7-[D-[2-Phenyl-2-[(2,3-dihydroxybenzoyl)amino]acetyl]amino]-3-[[(1-methyltetrazol-5-yl)thio]methyl]-3-cephem-4-carboxylic acid]?
A: MIC (Shigella sp.): 3.7 µg/mL (≈ 6.19 µM); MIC (Escherichia coli): 14.8 µg/mL (≈ 24.8 µM); MIC (Klebsiella pneumoniae): 10 µg/mL (≈ 16.7 µM); MIC (Aerobacter Aerogenes): 5.4 µg/mL (≈ 9.04 µM); MIC (Salmonella heidelberg): 0.5 µg/mL (≈ 0.837 µM); MIC (Pseudomonas Aeruginosa): 13.8 µg/mL (≈ 23.1 µM); MIC (Serratia marcescens): 16.4 µg/mL (≈ 27.4 µM); MIC [1]: 15.1 µg/mL (≈ 25.3 µM); MIC [2, 5]: 132 µg/mL (≈ 221 µM); MIC [3]: 136 µg/mL (≈ 228 µM); MIC [4, 6]: 10.3 µg/mL (≈ 17.2 µM); pKa (Titration (pKa); [7]): 5.31; pKa (Titration (pKa); [8]): 8.73

Q: Which MIC (Shigella sp.) does the source give for `Cn1nnnc1SCC1=C(C(=O)O)N2C(=O)C(NC(=O)[C@H](NC(=O)c3ccc(O)c(O)c3)c3ccc(O)cc3)C2SC1` (stereo partly drawn) [Example 2, 7-[D-[2-(4-Hydroxyphenyl)-2-[(3,4-dihydroxybenzoyl)amino]acetyl]amino]-3-[[(1-methyltetrazol-5-yl)thio]methyl]-3-cephem-4-carboxylic acid] here?
A: 1 µg/mL (≈ 1.63 µM)

Q: And the MIC (Escherichia coli)?
A: 8.5 µg/mL (≈ 13.9 µM)

Q: And the MIC (Klebsiella pneumoniae)?
A: 0.8 µg/mL (≈ 1.3 µM)

Q: And the MIC (Aerobacter Aerogenes)?
A: 4 µg/mL (≈ 6.52 µM)

Q: What about the MIC (Salmonella heidelberg) of the same compound?
A: 0.2 µg/mL (≈ 0.326 µM)

Q: What about the MIC (Pseudomonas Aeruginosa) of the same compound?
A: 4.9 µg/mL (≈ 7.99 µM)

Q: What about the MIC (Serratia marcescens) of the same compound?
A: > 200 µg/mL

Q: And the MIC [1]?
A: 3.6 µg/mL (≈ 5.87 µM)

Q: What about the MIC [2, 5] of the same compound?
A: 3.8 µg/mL (≈ 6.19 µM)

Q: What about the MIC [3] of the same compound?
A: 8.4 µg/mL (≈ 13.7 µM)

Q: And the MIC [4, 6]?
A: 3.2 µg/mL (≈ 5.21 µM)

Q: What about the pKa (Titration (pKa); [7]) of the same compound?
A: 4.1

Q: What about the pKa (Titration (pKa); [8]) of the same compound?
A: 10.9

Q: Which MIC (Shigella sp.) does the source give for `Cn1nnnc1SCC1=C(C(=O)O)N2C(=O)C(NC(=O)[C@H](NC(=O)c3cccc(O)c3O)c3ccc(O)cc3)C2SC1` (stereo partly drawn) [Example 3, 7-[D-[2-(4-Hydroxyphenyl)-2-[(2,3-dihydroxybenzoyl)amino]acetyl]amino]-3-[[(1-methyltetrazol-5-yl)thio]methyl]-3-cephem-4-carboxylic acid] here?
A: 7 µg/mL (≈ 11.4 µM)

Q: And the MIC (Escherichia coli)?
A: 13.2 µg/mL (≈ 21.5 µM)

Q: What about the MIC (Klebsiella pneumoniae) of the same compound?
A: 4.1 µg/mL (≈ 6.68 µM)

Q: And the MIC (Aerobacter Aerogenes)?
A: 6.6 µg/mL (≈ 10.8 µM)

Q: And the MIC (Salmonella heidelberg)?
A: 1 µg/mL (≈ 1.63 µM)

Q: What about the MIC (Pseudomonas Aeruginosa) of the same compound?
A: 5.3 µg/mL (≈ 8.64 µM)

Q: And the MIC (Serratia marcescens)?
A: 80 µg/mL (≈ 130 µM)

Q: What about the MIC [1] of the same compound?
A: 23 µg/mL (≈ 37.5 µM)

Q: And the MIC [2, 5]?
A: 23 µg/mL (≈ 37.5 µM)

Q: What about the MIC [3] of the same compound?
A: 130 µg/mL (≈ 212 µM)

Q: And the MIC [4, 6]?
A: 22 µg/mL (≈ 35.9 µM)

Q: And the pKa (Titration (pKa); [7])?
A: 5.02

Q: And the pKa (Titration (pKa); [8])?
A: 8.83

Q: Which MIC (Shigella sp.) does the source give for `Cc1nnc(SCC2=C(C(=O)O)N3C(=O)C(NC(=O)[C@H](NC(=O)c4ccc(O)c(O)c4O)c4ccc(O)cc4)C3SC2)s1` (stereo partly drawn) [Example 7, 7-[D-[2-(4-Hydroxyphenyl)-2-[(2,3,4-trihydroxybenzoyl)-amino]-acetyl]amino]-3-[[(5-methyl-1,3,4-thiadiazol-2-yl)thio]methyl]-3-cephem-4-carboxylic acid] here?
A: 50 µg/mL (≈ 77.4 µM)

Q: And the MIC (Escherichia coli)?
A: 100 µg/mL (≈ 155 µM)

Q: And the MIC (Klebsiella pneumoniae)?
A: 52.5 µg/mL (≈ 81.3 µM)

Q: What about the MIC (Aerobacter Aerogenes) of the same compound?
A: 57.5 µg/mL (≈ 89.1 µM)

Q: And the MIC (Salmonella heidelberg)?
A: 16 µg/mL (≈ 24.8 µM)

Q: And the MIC (Pseudomonas Aeruginosa)?
A: 25 µg/mL (≈ 38.7 µM)

Q: And the MIC (Serratia marcescens)?
A: > 200 µg/mL

Q: And the MIC [1]?
A: 60 µg/mL (≈ 92.9 µM)

Q: And the MIC [2, 5]?
A: 60 µg/mL (≈ 92.9 µM)

Q: And the MIC [3]?
A: > 200 µg/mL

Q: What about the MIC [4, 6] of the same compound?
A: 25 µg/mL (≈ 38.7 µM)

Q: Which MIC (Shigella sp.) does the source give for `Cc1nnc(SCC2=C(C(=O)O)N3C(=O)C(NC(=O)[C@H](NC(=O)c4c(O)cc(O)cc4O)c4ccc(O)cc4)C3SC2)s1` (stereo partly drawn) [Example 8, 7-[D-[2-(4-Hydroxyphenyl)-2-[(2,4,6-trihydroxybenzoyl)-amino]acetyl]amino]-3-[[(5-methyl-1,3,4-thiadiazol-2-yl)thio]methyl]-3-cephem-4-carboxylic acid] here?
A: 100 µg/mL (≈ 155 µM)

Q: What about the MIC (Escherichia coli) of the same compound?
A: 120 µg/mL (≈ 186 µM)

Q: What about the MIC (Klebsiella pneumoniae) of the same compound?
A: 110 µg/mL (≈ 170 µM)

Q: What about the MIC (Aerobacter Aerogenes) of the same compound?
A: 140 µg/mL (≈ 217 µM)

Q: And the MIC (Salmonella heidelberg)?
A: 110 µg/mL (≈ 170 µM)

Q: And the MIC (Pseudomonas Aeruginosa)?
A: 100 µg/mL (≈ 155 µM)

Q: And the MIC (Serratia marcescens)?
A: > 200 µg/mL

Q: And the MIC [1]?
A: 10.5 µg/mL (≈ 16.3 µM)

Q: And the MIC ([2]; Staphylococcus)?
A: 10 µg/mL (≈ 15.5 µM)

Q: What about the MIC [3] of the same compound?
A: 120 µg/mL (≈ 186 µM)

Q: What about the MIC ([4]; Staphylococcus) of the same compound?
A: 10 µg/mL (≈ 15.5 µM)

Q: For `Cc1nnc(SCC2=C(C(=O)O)N3C(=O)C(NC(=O)[C@H](NC(=O)c4ccc(N)c(N)c4)c4ccc(O)cc4)C3SC2)s1` (stereo partly drawn) [Example 13, 7-[D-[2-(4-Hydroxyphenyl)-2-[(3,4-diaminobenzoyl)amino]-acetyl]amino]-3-[[(5-methyl-1,3,4-thiadiazol-2-yl)-thio]methyl]-3-cephem-4-carboxylic acid], which MIC (Shigella sp.) is on record?
A: 13.8 µg/mL (≈ 22 µM)

Q: And the MIC (Escherichia coli)?
A: 19 µg/mL (≈ 30.3 µM)

Q: And the MIC (Klebsiella pneumoniae)?
A: 14.8 µg/mL (≈ 23.6 µM)

Q: And the MIC (Aerobacter Aerogenes)?
A: 33.2 µg/mL (≈ 52.9 µM)

Q: What about the MIC (Salmonella heidelberg) of the same compound?
A: 14.6 µg/mL (≈ 23.3 µM)

Q: And the MIC (Pseudomonas Aeruginosa)?
A: 31.5 µg/mL (≈ 50.2 µM)

Q: And the MIC (Serratia marcescens)?
A: 116 µg/mL (≈ 185 µM)

Q: What about the MIC [1] of the same compound?
A: 4.6 µg/mL (≈ 7.33 µM)

Q: What about the MIC [2, 5] of the same compound?
A: 5.2 µg/mL (≈ 8.28 µM)

Q: And the MIC [3]?
A: 126 µg/mL (≈ 201 µM)

Q: And the MIC ([4]; Staphylococcus)?
A: 5 µg/mL (≈ 7.97 µM)
